Reference: US20040029908A1, “Tricyclo compounds, a process for their production and a pharmaceutical composition containing the same” (FUJISAWA PHARMACEUTICAL CO., LTD., priority 1984, published 2004)
In brackets after ≈: the same amount, converted by molar mass.

Legend:
[1] = Solubility (physical and chemical properties); assay type: physicochemical
[2] = test system: Skin Allograft Survival in Rats (Fischer donor, WKA recipient); experiment: Skin Allograft Survival in Rats; assay type: in vivo, rat; settings: daily treatment, intramuscularly, 14 consecutive days
Procedure: Vental allografts from donor (Fischer) rats were grafted onto the lateral thoracic area of recipient (WKA) rats. The dressings were removed on day 5. The grafts were inspected daily until rejection which was defined as more than 90% necrosis of the graft epitherium.
The FR-900506 substance was dissolved in olive oil and administered intramuscularly for 14 consecutive days, beginning at the day of transplantation.

[3] = test system: DTH to MBSA in BDF1 mice; experiment: Delayed Type Hypersensitivity (DTH) Response to methylated bovine serum albumin (MBSA); assay type: in vivo, mouse
Procedure: Female BDF1 mice were used for this test. The mice were sensitized with a subcutaneous injection of 0.1 ml emulsion consisting of equal volume of MBSA (2 mg/ml) and Freund's incomplete adjuvant(FIA). Seven days later, a 0.05 ml challenge dose of 0.4 mq/ml MIBSA in saline was injected into the plantar region of the right hind foot and 0.05 ml saline into the left hind foot to act as a control. Twenty four hours after challenge, both hind feet were measured with a dial gauge and the mean challenge in footpad thickness was measured. The FR-900506 substance was injected for 8 days orally, starting from the sensitization.

[4] = test system: Plaque Forming Cell (PFC) Response in C3H/He mice; experiment: in vivo Plaque Forming Cell (PFC) Response in Mice; set-up: species or system mouse
Procedure: Male C3H/He mice 6 to 7 weeks of age were used for this 1 test. The mice were immunized on day 0 with 0.2 ml of 1 ×10^8 washed sheep erythrocytes intravenously. Spleens were removed on day 4 and spleen cells were incubated in the presence of SRBC as described by Cunningham and Szenberg (1968). Tests were evaluated by enumeration of direct generated plaque forming cells in the presence of complement. Suspensions of spleen cells were counted with a Microcellcounter CC-130 (Sysmex, Japan) and PFC results were calculated as PFC/10^6 recovered cells. The FR-900506 substance was administered orally for 4 days starting from the immunization.

[5] = test system: interleukin 3 and interferones; experiment: Lymphokine production in the supernatant of MLR; assay type: cell-based, mouse; settings: especially y-interferone
Procedure: (§1) The mixed lymphocyte reaction (MILR) was performed in microtiter plates, with each well containing 5 ×10^5 C57BL/6 responder cells (H-2^b), 5 ×10^5 mitomycin C treated (25 μg/ml mitomycin C at 37° C. for 30 minutes and washed three times pith RPMI 1640 medium) BALB/C stimulator cells ([…]) in 0.2 ml RPMI 1640 medium supplemented with 10% fetal calf serum, 2mM sodium hydrogen carbonate, penicillin 20 (50 unites/ml) and streptomycin (50 μg/ml) . The cells were incubated at 37° C. in humidified atmosphere of 5% carbon dioxide and 95% of air for 48 hours and the supernatant was collected. The FR-900506 substance was dissolved in ethanol and further diluted in RPMI 1640 medium and added to the cultures to give final concentrations of 0.1 μg/ml or less.

[6] = test system: ddY mice; experiment: Acute toxicities in ddY mice by intraperitoneal injection; assay type: in vivo; settings: ddY mice, intraperitoneal injection
[7] = test system: Aspergillus fumigatus IFO 5840; experiment: Antimicrobial activity, serial agar dilution method in Sabouraud agar; assay type: cell-based; settings: IFO5840, 30° C., 24 hours
Procedure: (§2) Antimicrobial activities of the tricyclo compounds (I) against various fungi were determined by a serial agar dilution method in a Sabouraud agar. Minimum inhibitory concentrations (MIC) were expressed in terms of μg/ml after incubation at 30° C. for 24 hours.

[8] = test system: Fusarium oxysporum; experiment: as above; assay type: cell-based; settings: 30° C., 24 hours
Procedure: as §2

[9] = test system: Antibody formation to sheep erythrocytes (SRBC) in BDF1 mice; experiment: Antibody Formation in mice (haemagglutination test); assay type: in vivo, mouse
Procedure: Male BDF1 mice 6 to 8 weeks of age were used for this test. The mice were immunized on day 0 with […] sheep erythrocytes (SRBC) intraperitoneally. Serum aggulutinin titers were determined for each individual animal with sedimentation of erythrocytes by serial two fold dilutions. The titers are expressed as -log2 The FR-900506 substance was administered orally for 5 days from one day before immunization to day 3.

[10] = test system: Interleukin-2 (IL-2) Production; experiment: Inhibition of Interleukin-2 (IL-2) Production in MLR, CTLL-2 bioassay; assay type: cell-based, mouse; settings: for IL-2: MLR supernatant at 48 hours
Procedure: as §1
The IL-2 activity was measured according to the method described by S. Gillis et. al. [Journal of Inununology, Vol. 120, page 2027, (1978)]. The IL-2 dependent CTLL-2 cell line was used to quantitate IL-2 activity. Cells (5 ×10^3/well) were cultured at 37° C. for 24 hours with various dilutions of IL-2 containing supernatant from MLR. The uptake of ^3H-thymidine was measured by pulsing cultures with 0.5 uCi of 1T-thymidine for 6 hours. The unit value was calculated by dilution analysis of test sample and was compared with a laboratory standard preparation in which 100 units are equivalent to the amount of IL-2 necessary to achieve 50% proliferation of CTLL-2 cells.

[11] = test system: Local Graft-versus-Host Reaction in BDF1 mice; experiment: Local Graft-versus-Host Reaction (GvHR) in Mice; assay type: in vivo; settings: Mus musculus, po; orally for five days; weight difference right and left popliteal lymph nodes, day 7; read-out: ED50 for prevention of the local graft-versus-host reaction
Procedure: The viable spleen cells ([…] cells) from C57BL/6 donors were injected subcutaneously into the right hind foot pad of BDF1 mice to induce local GvHR. The mice were killed 7 days later and both right (injected paw) and left (uninjected paw) popliteal lymph nodes (PLN) were weighed. The GVHR was expressed as the weight difference between right and left PLN. The FR-900506 substance was dissolved in olive oil and administered orally for five days starting on the same day as sensitization.

C=CCC1/C=C(\C)CC(C)CC(OC)C2OC(O)(C(=O)C(=O)N3CCCCC3C(=O)OC(/C(C)=C/C3CCC(O)C(OC)C3)C(C)C(O)CC1=O)C(C)CC2OC (stereo not shown) [FR-900506, 17-Allyl-1,14-dihydroxy-12-[2-(4-hydroxy-3-methoxycyclohexyl)-1-methyvinyl]-23-25-dimethoxy-13,19,21,27-tetramethyl-11,28-dioxa-4-azatricyclo[22.3.1.0^4,9]octacos-18-ene-2,3,10,16-tetraone]
Solubility ([1]; hexane (n-hexane), petroleum ether): Sparingly Soluble
Solubility ([1]; methanol, ethanol, acetone, ethyl acetate, chloroform, diethyl ether and benzene): Soluble
Solubility ([1]; water): Insoluble
Effect on skin allograft survival (in words) [2]: clearly prolonged skin allograft survival
Footpad Swelling ([3]; 10 mg/kg orally for 8 days): 31.0 ± 4.4 × 10^−3 cm
Footpad Swelling ([3]; 32 mg/kg orally for 8 days): 20.8 ± 4.4 × 10^−3 cm
Footpad Swelling ([3]; 100 mg/kg orally for 8 days): 7.8 ± 1.6 × 10^−3 cm
ED50 ([3]; Mus musculus, po, 192 h, orally for 8 days starting from the sensitization): 18.4 mg/kg
PFC/10^6 cells ([4]; 3.2 mg/kg orally for 4 days): 3618 ± 476 PFC/10^6 cells
PFC/10^6 cells ([4]; 10 mg/kg orally for 4 days): 1382 ± 243 PFC/10^6 cells
PFC/10^6 cells ([4]; 32 mg/kg orally for 4 days): 657 ± 41 PFC/10^6 cells
PFC/10^6 cells ([4]; 100 mg/kg orally for 4 days): 278 ± 41 PFC/10^6 cells
ED50 ([4]; Mus musculus, po, 96 h, orally for 4 days starting from the immunization): 5.9 mg/kg
Lymphokine production (in words) [5]: inhibited lymphokine production such as interleukin 3 and interferones
the dead at dose of 100 mg/kg [6]: could not be observed
MIC [7]: 0.025 µg/mL (≈ 0.0311 µM)
MIC [8]: 0.05 µg/mL (≈ 0.0622 µM)
Haemagglutination Mean log2 titer ± SE ([9]; 10 mg/kg orally for 5 days): 7.6 ± 0.4
Haemagglutination Mean log2 titer ± SE ([9]; 32 mg/kg orally for 5 days): 6.0 ± 0.45
Haemagglutination Mean log2 titer ± SE ([9]; 100 mg/kg orally for 5 days): 4.4 ± 0.75
ED50 ([9]; Erythrocyte, po, orally for 5 days from one day before immunization to day 3): 16.9 mg/kg
Production of IL-2 from mouse MLR (in words) [10]: inhibited the production of Il-2 from mouse MLR
IL-2 ([10]; 0.1 nM): 25.0 units/ml
IL-2 ([10]; 0.3 nM): 0.2 units/ml
IL-2 ([10]; 1 nM): 0 units/ml
IL-2 ([10]; 10 nM): 0 units/ml
inhibition at 0.0001 µM ([10]; Mus musculus, CTLL-2, 0.1 nM): 34.4%
inhibition at 0.0003 µM ([10]; Mus musculus, CTLL-2, 0.3 nM): 99.5%
inhibition at 0.001 µM ([10]; Mus musculus, CTLL-2, 1 nM): 100%
inhibition at 0.01 µM ([10]; Mus musculus, CTLL-2, 10 nM): 100%
ED50 [11]: 19 mg/kg
